Measurements published in paper PMC6009892, “A novel series of pyrazole-platinum(II) complexes as potential anti-cancer agents that induce cell cycle arrest and apoptosis in breast cancer cells” (Journal of Enzyme Inhibition and Medicinal Chemistry, 2018).

Columns and labels:
[1] = system: human G1/S-specific cyclin D1 in MCF-7 cells; assay: Cyclin D1 ELISA in cell lysates, MCF-7; format: cell-based; conditions: MCF-7, 20 μM, 24 h; untreated cells 2.6 ng/ml
Procedure: (§1) Cell lysates: Briefly, trypsinised cells were washed three times with cold PBS and centrifuged at 1000 g for 5 min at 4 °C. The cells (1 × 10^6) were suspended in lysis buffer for whole cell lysates. After centrifugation, the supernatants were frozen immediately at −70 °C. The concentration of human G1/S-specific cyclin D1 was measured. Cells without addition of compounds were treated as controls.
(§2) Determination of human G1/S-specific cyclin D1: The high sensitivity assay kit (EIAab) was used to determine the concentration of human G1/S-specific cyclin D1 in cell lysates. The microtiter plate provided in this kit has been pre-coated with an antibody specific to cyclin D1. Standards and samples were added to the appropriate microtiter plate wells. After 2 h of incubation at 37 °C, the plate was incubated with biotin-conjugated antibody for 1 h at 37 °C. Then microplate wells were aspirated and washed three times and then incubated with avidin conjugated to horseradish peroxidase (HRP). Then, a TMB substrate solution was added to each well. […] The enzyme–substrate reaction was terminated by the addition of a sulfuric acid solution and the color change was measured spectrophotometrically at a wavelength of 450 nm ± 2 nm. The concentration of cyclin D1 in the samples was determined by comparing the O.D. of the samples to the standard curve.

[2] = system: MCF-7 breast cancer cells; assay: Cell cycle analysis by flow cytometry (PI), MCF-7; format: cell-based, human; conditions: breast cancer cells (MCF-7), 20 μM, 24 h, versus control
Procedure: Distribution of cell cycle phases was analysed by flow cytometry. Briefly, MCF-7 and MDA-MB-231 cells were seeded into six-well plates at a density of 2.5 × 10^5 cells per well and treated with 20 μM of PtPz1–PtPz6 for 24 h. After incubation, the cells were harvested and then fixed with 1 ml of 70% ethanol and kept overnight at −20 °C. Before analysis, the cells were re-suspended in PBS, treated with 50 μg/ml of DNase-free RNase A Solution (Promega), and stained with 100 μg/ml of PI. The FACSCanto II flow cytometer (BD Biosciences Systems, San Jose, CA) was used to read the fluorescence.

[3] = system: MCF-7 breast cancer cells; assay: Mitochondrial membrane potential JC-1, MCF-7; format: cell-based, human; conditions: MCF-7, 20 μM, 24 h; untreated 7.4%
Procedure: (§3) Disruption of the MMP was assessed using the lipophilic cationic probe 5,5′,6,6′-tetrachloro-1,1′,3,3′-tetraethylbenzimidazolcarbocyanine iodide (JC-1 MitoScreen kit; BD Biosciences Systems, San Jose, CA), as described previously. Briefly, unfixed cells were washed and re-suspended in PBS supplemented with 10 µg/ml of JC-1. Cells were then incubated for 15 min at room temperature in the dark, washed, and re-suspended in PBS for immediate BD FACSCanto II flow cytometry analysis. The percentage of cells with disrupted MMP was calculated using FACSDiva software (both from BD Biosciences Systems, San Jose, CA).

[4] = system: caspase-9 in MDA-MB-231 breast cancer cells; assay: FLICA caspase-9 activity, flow cytometry, MDA-MB-231; format: cell-based, human; conditions: MDA-MB-231, 20 μM, 24 h
Procedure: (§4) Caspase-9 activity was measured using the FLICA Caspase 9 Assay Kit (ImmunoChemistry Technologies, Bloomington, MN, USA), according to the manufacturer’s instructions. Briefly, cultured MCF-7 and MDA-MB-231 breast cancer cells (1 × 10^6) were washed with cold PBS twice and re-suspended in buffer. We added 5 µl of diluted FLICA reagent and 2 µl of Hoechst 33342 to 93 µl of cell suspension and mixed by pipetting. The cells were incubated for 60 min at 37°C. After incubation, the cells were washed twice in 400 µl of apoptosis wash buffer and centrifuged at 300 × g. After the last wash, we re-suspended cells in 100 µl of apoptosis wash buffer supplemented with 10 µg/ml PI. Analysis was performed using the BD FACSCanto II flow cytometer, and the results were analysed with FACSDiva software (both from BD Biosciences Systems, San Jose, CA).

[5] = system: caspase-8 in MCF-7 breast cancer cells; assay: FLICA caspase-8 activity, flow cytometry, MCF-7; format: cell-based, human; conditions: MCF-7, 20 μM, 24 h
Procedure: as §4, with “Caspase-8 activity was” for “Caspase-9 activity was”, “FLICA Caspase 8 Assay Kit” for “FLICA Caspase 9 Assay Kit”, “we re-suspended the cells in” for “we re-suspended cells in”

[6] = system: caspase-8 in MDA-MB-231 breast cancer cells; assay: FLICA caspase-8 activity, flow cytometry, MDA-MB-231; format: cell-based, human; conditions: MDA-MB-231, 20 μM, 24 h
Procedure: as §4, with “Caspase-8 activity was” for “Caspase-9 activity was”, “FLICA Caspase 8 Assay Kit” for “FLICA Caspase 9 Assay Kit”, “we re-suspended the cells in” for “we re-suspended cells in”

[7] = system: MDA-MB-231 breast cancer cells; assay: Mitochondrial membrane potential JC-1, MDA-MB-231; format: cell-based, human; conditions: MDA-MB-231, 20 μM, 24 h; untreated 5.8%
Procedure: as §3

[8] = system: human G1/S-specific cyclin D1 in MDA-MB-231 cells; assay: Cyclin D1 ELISA in cell lysates, MDA-MB-231; format: cell-based; conditions: MDA-MB-231, 20 μM, 24 h
Procedure: as §1, §2

[9] = system: MCF-7 breast cancer cells; assay: Annexin V-FITC/PI flow cytometry, MCF-7; format: cell-based, human; conditions: MCF-7, 20 μM, 24 h; for percent of cells with early and late apoptosis: control 8.5%
Procedure: (§5) To characterise the mode of cell death induced by PtPz1–PtPz6, a flow cytometry analysis was performed using Apoptosis Detection Kit II (BD Pharmingen, San Diego, CA), according to the manufacturer’s instructions. Cells (10000 cells measured) were analysed in a flow cytometer (BD FACSCanto II flow cytometer, San Jose, CA). Annexin V bound with high affinity to phosphatidylserine and thus could be used to identify cells in all stages of the programmed cell death. Propidium iodide (PI) stained cells with a disrupted cell membrane, and it could be used to identify late apoptotic and dead cells. Cells cultured in a drug-free medium were used as controls. […] Results were analysed with FACSDiva software (BD Biosciences Systems, San Jose, CA).

[10] = system: MDA-MB-231 breast cancer cells; assay: Annexin V-FITC/PI flow cytometry, MDA-MB-231; format: cell-based, human; conditions: MDA-MB-231, 20 μM, 24 h; for percent of cells with early and late apoptosis: control 7.1%
Procedure: as §5

Row | Compound | concentration of cyclin D1 [1] [ng/mL] | accumulation of cells in G2/M phase [2] [fold] | percent of cells with decrease ΔΨm [3] [%] | percent of cells with active caspase-9 [4] [%] | increase in caspase-8 activity compared with the control [5] [fold] | percent of cells with active caspase-8 [5] [%] | increase in caspase-8 activity compared with the control [6] | percent of cells with active caspase-8 [6] [%] | percent of cells with decrease ΔΨm [7] [%] | concentration of cyclin D1 [8] [ng/mL] | percent of cells with early and late apoptosis [9] [%] | viable cells ([9]; control 89.7%) [%] | percent of cells with early and late apoptosis [10] [%] | viable cells ([10]; control 91.6%) [%]
1 | Cc1cc(C)[n+]([Pt-2]2([n+]3c(C)cc(C)n3CO)[N](c3ccc(C(=N)N)cc3)N=[N+](c3ccc(C(=N)N)cc3)[Pt-2]([n+]3c(C)cc(C)n3CO)([n+]3c(C)cc(C)n3CO)[N](c3ccc(C(=N)N)cc3)N=[N+]2c2ccc(C(=N)N)cc2)n1CO.Cl.Cl.Cl.Cl.O.O [PtPz1, [Pt2(N-hydroxymethyl-3,5-dimethylpyrazole)4(berenil)2]·4HCl·2H2O] | 0.8 | 2.0 | 91.7 | 47.9 | ~12 | 56.2 | about 10 fold | 48.9 | 90.7 | – | – | – | – | –
2 | Cc1cc(C)[n+]([Pt-2]2([n+]3[nH]c(C)cc3C)[N](c3ccc(C(=N)N)cc3)N=[N+](c3ccc(C(=N)N)cc3)[Pt-2]([n+]3[nH]c(C)cc3C)([n+]3[nH]c(C)cc3C)[N](c3ccc(C(=N)N)cc3)N=[N+]2c2ccc(C(=N)N)cc2)[nH]1.Cl.Cl.Cl.Cl.O.O [PtPz2, [Pt2(3,5-dimethylpyrazole)4(berenil)2]·4HCl·2H2O] | – | 2.0 | 90.0 | 46.5 | ~12 | 56.2 | about 10 fold | 45.8 | – | – | – | – | – | –
3 | Cc1c[nH][n+]([Pt-2]2([n+]3[nH]cc(C)c3C)[N](c3ccc(C(=N)N)cc3)N=[N+](c3ccc(C(=N)N)cc3)[Pt-2]([n+]3[nH]cc(C)c3C)([n+]3[nH]cc(C)c3C)[N](c3ccc(C(=N)N)cc3)N=[N+]2c2ccc(C(=N)N)cc2)c1C.Cl.Cl.Cl.Cl.O.O [PtPz3, [Pt2(3,4-dimethylpyrazole)4(berenil)2]·4HCl·2H2O] | – | 2.0 | 86.2 | 41.1 | – | 48.3 | – | 38.0 | – | – | – | – | – | –
4 | Cc1ccn[nH]1.Cc1ccn[nH]1.Cc1ccn[nH]1.Cc1ccn[nH]1.Cl.Cl.Cl.Cl.N=C(N)c1ccc(N=N[N]([Pt])c2ccc(C(=N)N)cc2)cc1.N=C(N)c1ccc(N=N[N]([Pt])c2ccc(C(=N)N)cc2)cc1.O.O [PtPz5, [Pt2(5-methylpyrazole)4(berenil)2]·4HCl·2H2O] | – | – | – | 38.6 | – | 46.1 | – | 37.9 | – | 0.7 | – | – | – | –
5 | CCn1ccc[n+]1[Pt-2]1([n+]2cccn2CC)[N](c2ccc(C(=N)N)cc2)N=[N+](c2ccc(C(=N)N)cc2)[Pt-2]([n+]2cccn2CC)([n+]2cccn2CC)[N](c2ccc(C(=N)N)cc2)N=[N+]1c1ccc(C(=N)N)cc1.Cl.Cl.Cl.Cl.O.O [PtPz6, [Pt2(N-ethylpyrazole)4(berenil)2]·4HCl·2H2O] | – | – | – | 24.6 | – | 21.0 | – | 21.1 | – | – | 17.2 | 80.9 | 18.6 | 79.4
6 | N.N.[Cl][Pt][Cl] [cisplatin, reference compound] | – | – | – | 7.3 | – | 7.1 | – | 9.7 | – | – | 10.4 | – | 10.1 | –
